As usually defined, the pIC50 is the IC50 on a negative log10 scale, so that one unit is a factor of ten.

pIC50: −log10 of the molar value. Structures can show the parent of a compound that is named as a salt.

The test deals with Full length human recombinant PIKFYVE (Homo sapiens (Human), UniProt Q9Y2I7). Put plainly: Inhibition of PIKfyve (microfluidic electrophoresis kinase assay). Format: biochemical. As to conditions: 2 nM enzyme, PI3P/PS substrate, 3 h at room temperature, 12 concentrations. On the procedure: Full length human recombinant PIKFYVE expressed in baculovirus expression system as N-terminal GST-fusion protein (265 kDa) was obtained from Carna Biosciences (Kobe, Japan). The kinase substrate was prepared by mixing and sonicating fluorescently-labeled phosphatidylinositol 3-phosphate (PI3P) with phospho-L-serine (PS) at a 1:10 ratio in 50 mM HEPES buffer pH7.5.
Sequence of Full length human recombinant PIKFYVE (Q9Y2I7 whole entry, the tested form may be a part): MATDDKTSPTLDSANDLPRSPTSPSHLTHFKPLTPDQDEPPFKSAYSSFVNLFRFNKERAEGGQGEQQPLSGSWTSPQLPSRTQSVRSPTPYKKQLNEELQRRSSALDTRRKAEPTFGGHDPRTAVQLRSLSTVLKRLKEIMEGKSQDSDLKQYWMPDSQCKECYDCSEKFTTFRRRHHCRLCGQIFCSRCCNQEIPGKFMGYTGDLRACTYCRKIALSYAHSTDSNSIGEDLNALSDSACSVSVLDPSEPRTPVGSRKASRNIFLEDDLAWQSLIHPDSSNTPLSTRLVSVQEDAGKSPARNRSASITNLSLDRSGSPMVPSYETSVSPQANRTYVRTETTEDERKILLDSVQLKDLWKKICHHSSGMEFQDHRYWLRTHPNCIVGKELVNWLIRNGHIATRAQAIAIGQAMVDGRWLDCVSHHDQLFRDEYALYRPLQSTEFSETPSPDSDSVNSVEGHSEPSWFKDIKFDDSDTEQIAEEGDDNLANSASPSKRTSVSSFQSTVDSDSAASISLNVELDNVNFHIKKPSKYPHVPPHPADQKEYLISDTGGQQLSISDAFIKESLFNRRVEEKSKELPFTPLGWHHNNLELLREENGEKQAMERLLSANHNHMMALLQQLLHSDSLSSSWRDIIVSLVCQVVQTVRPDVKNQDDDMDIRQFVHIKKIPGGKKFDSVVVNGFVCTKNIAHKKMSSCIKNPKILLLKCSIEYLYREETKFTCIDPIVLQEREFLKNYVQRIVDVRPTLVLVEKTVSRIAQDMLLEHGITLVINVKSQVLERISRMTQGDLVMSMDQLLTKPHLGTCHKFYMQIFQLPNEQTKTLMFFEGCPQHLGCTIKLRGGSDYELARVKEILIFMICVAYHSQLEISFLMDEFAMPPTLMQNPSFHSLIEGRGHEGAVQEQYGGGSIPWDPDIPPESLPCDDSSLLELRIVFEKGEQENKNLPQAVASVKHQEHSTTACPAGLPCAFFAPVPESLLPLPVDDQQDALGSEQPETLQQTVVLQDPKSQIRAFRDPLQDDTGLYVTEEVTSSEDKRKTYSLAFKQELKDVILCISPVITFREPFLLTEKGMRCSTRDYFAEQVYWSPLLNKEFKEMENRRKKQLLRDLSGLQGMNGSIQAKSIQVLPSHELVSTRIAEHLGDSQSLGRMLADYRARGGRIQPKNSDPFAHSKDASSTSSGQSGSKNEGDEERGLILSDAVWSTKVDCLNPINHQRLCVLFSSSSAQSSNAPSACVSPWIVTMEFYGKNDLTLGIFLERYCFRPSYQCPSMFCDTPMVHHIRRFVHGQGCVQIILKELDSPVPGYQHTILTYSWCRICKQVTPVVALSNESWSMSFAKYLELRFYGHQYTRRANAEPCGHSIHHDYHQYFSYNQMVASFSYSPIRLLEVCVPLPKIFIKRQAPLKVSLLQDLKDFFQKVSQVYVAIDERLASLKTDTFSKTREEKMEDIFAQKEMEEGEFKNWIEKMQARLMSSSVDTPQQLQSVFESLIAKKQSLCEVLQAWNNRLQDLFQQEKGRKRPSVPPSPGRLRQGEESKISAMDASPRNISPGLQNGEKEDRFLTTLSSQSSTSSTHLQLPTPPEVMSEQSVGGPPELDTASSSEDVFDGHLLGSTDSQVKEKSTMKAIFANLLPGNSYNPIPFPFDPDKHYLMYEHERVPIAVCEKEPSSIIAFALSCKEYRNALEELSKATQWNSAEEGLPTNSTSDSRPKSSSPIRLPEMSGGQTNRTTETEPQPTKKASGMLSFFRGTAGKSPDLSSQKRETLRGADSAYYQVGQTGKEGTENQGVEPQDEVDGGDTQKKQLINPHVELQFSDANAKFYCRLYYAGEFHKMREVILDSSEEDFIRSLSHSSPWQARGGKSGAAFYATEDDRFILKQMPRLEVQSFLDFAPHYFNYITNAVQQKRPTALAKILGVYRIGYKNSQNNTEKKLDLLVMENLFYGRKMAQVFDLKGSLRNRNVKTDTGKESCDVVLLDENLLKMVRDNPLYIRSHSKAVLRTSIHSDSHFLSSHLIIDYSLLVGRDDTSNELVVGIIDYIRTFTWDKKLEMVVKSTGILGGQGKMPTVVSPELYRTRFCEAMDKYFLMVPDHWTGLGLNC
The kinase reactions were assembled in 384-well plates (Greiner) in a total volume of […] as follows. Kinase protein was pre-diluted in an assay buffer comprising 25 mM HEPES, pH 7.5, 1 mM DTT, 2.5 mM MgCl2, and 2.5 mM MnCl2, and 0.005% Triton X-100, and dispensed into a 384-well plate (10 μL per well). Test compounds were serially pre-diluted in DMSO and added to the protein samples by acoustic dispensing (Labcyte Echo). The concentration of DMSO was equalized to 1% in all samples. All test compounds were tested at 12 concentrations. Apilimod was used as a reference compound and was tested in identical manner in each assay plate. Control samples (0%-inhibition, in the absence of inhibitor, DMSO only) and 100%-inhibition (in the absence of enzyme) were assembled in replicates of four and were used to calculate %-inhibition in the presence of compounds. The reactions were initiated by addition of 10 μL of 2× PI3P/PS substrate supplemented with ATP. The final concentration of enzyme was 2 nM, the final concentration of ATP was 10 mM, and the final concentration of PI3P/PS substrate was 1 μM (PI3P). The kinase reactions were allowed to proceed for 3 h at room temperature. Following incubation, the reactions were quenched by addition of […] of termination buffer (100 mM HEPES, pH 7.5, 0.01% Triton X-100, 20 mM EDTA). Terminated plates were analyzed on a microfluidic electrophoresis instrument (Caliper LabChip® 3000, Caliper Life Sciences/Perkin Elmer). The change in the relative fluorescence intensity of the PI (3) P substrate and PI (3,5) P product peaks was measured. The activity in each test sample was determined as the product to sum ratio (PSR): P/(S+P), where P is the peak height of the product, and S is the peak height of the substrate. Percent inhibition (Pinh) was determined using the following equation: Pinh=(PSR0% inh−PSRcompound)/(PSR0% inh−PSR100% inh)*100 in which PSRcompound is the product/sum ratio in the presence of compound, PSR0% inh is the product/sum ratio in the absence of compound, and the PSR100% inh is the product/sum ratio in the absence of the enzyme.
For the molecule `Cc1cccc(-c2cc(Nc3cc(N4CCOCC4)n4nc(-c5ccncc5)cc4n3)[nH]n2)c1` [Example 4, 7-morpholino-N-[3-(m-tolyl)-1H-pyrazol-5-yl]-2-(4-pyridyl)pyrazolo[1,5-a]pyrimidin-5-amine, Hydrogen Chloride Salt], the pIC50 was 6.26.

`Cc1cccc(-c2ccn(-c3cc(N4CCOCC4)n4nc(C(=O)N5CCCCC5)cc4n3)n2)c1` [Example 30, (7-morpholino-5-(3-(m-tolyl)-1H-pyrazol-1-yl)pyrazolo[1,5-a]pyrimidin-2-yl)(piperidin-1-yl)methanone]: the pIC50 was 6.61.

Turning to `Cc1cccc(-c2ccn(-c3cc(N4CCOCC4)n4nc(C(=O)N[C@@H]5CCOC5)cc4n3)n2)c1` [Compound 51, 7-morpholino-5-[3-(m-tolyl)pyrazol-1-yl]-N-[(3R)-tetrahydrofuran-3-yl]pyrazolo[1,5-a]pyrimidine-2-carboxamide], the pIC50 is 7.19.

As for `CON(C)C(=O)c1cc2nc(-n3ccc(-c4cccc(C)c4)n3)cc(N3CCOCC3)n2n1` [Example 33, N-methoxy-N-methyl-7-morpholino-5-(3-(m-tolyl)-1H-pyrazol-1-yl)pyrazolo[1,5-a]pyrimidine-2-carboxamide], the pIC50 was 6.95.

As for `c1cc(-c2cc3nc(Nc4cc(-c5ccncc5)[nH]n4)cc(N4CCOCC4)n3n2)ccn1` [Example 6, 7-morpholino-2-(4-pyridyl)-N-[5-(4-pyridyl)-1H-pyrazol-3-yl]pyrazolo[1,5-a]pyrimidin-5-amine], the pIC50 was 5.21.

In the case of `Nc1ncc(-c2cc3nc(-n4ccc(-c5ccccc5)n4)cc(N4CCOCC4)n3n2)cn1` [Compound 71, 5-[7-morpholino-5-(3-phenylpyrazol-1-yl)pyrazolo[1,5-a]pyrimidin-2-yl]pyrimidin-2-amine], the pIC50 is 6.84.

Turning to `c1ccc(-c2ccn(-c3cc(N4CCOCC4)n4nc(-c5cn[nH]c5)cc4n3)n2)cc1` [Compound 116, 4-[5-(3-phenylpyrazol-1-yl)-2-(1H-pyrazol-4-yl)pyrazolo[1,5-a]pyrimidin-7-yl]morpholine], the negative logarithm of the IC50 (pIC50) is 7.09.

Turning to `Cc1cccc(-c2ccn(-c3cc(N4CCOCC4)n4nc(-c5cc(C)n(C)n5)cc4n3)n2)c1` [Compound 87, 4-[2-(1,5-dimethylpyrazol-3-yl)-5-[3-(m-tolyl)pyrazol-1-yl]pyrazolo[1,5-a]pyrimidin-7-yl]morpholine], the pIC50 is 9.05.

With `c1ccc(-c2ccn(-c3cc(N4CCOCC4)n4nc(-c5cccnc5)cc4n3)n2)cc1` [Compound 64, 4-[5-(3-phenylpyrazol-1-yl)-2-(3-pyridyl)pyrazolo[1,5-a]pyrimidin-7-yl]morpholine], the pIC50 was 7.17.

For `Cc1cccc(-c2ccn(-c3cc(N4CCOCC4)n4nc(C(=O)NC5COC5)cc4n3)n2)c1` [Example 42, 7-morpholino-N-(oxetan-3-yl)-5-(3-(m-tolyl)-1H-pyrazol-1-yl)pyrazolo[1,5-a]pyrimidine-2-carboxamide], the pIC50 was 7.20.

As for `c1ccc(-c2ccn(-c3cc(N4CCOCC4)n4nc(-c5cccnn5)cc4n3)n2)cc1` [Compound 88, 4-[5-(3-phenylpyrazol-1-yl)-2-pyridazin-3-yl-pyrazolo[1,5-a]pyrimidin-7-yl]morpholine], the pIC50 is 6.68.

With `O=C(NC1CCCC1)c1cc2nc(-n3ccc(-c4ccccc4)n3)cc(N3CCOCC3)n2n1` [Compound 77, N-cyclopentyl-7-morpholino-5-(3-phenylpyrazol-1-yl)pyrazolo[1,5-a]pyrimidine-2-carboxamide], the pIC50 is 6.74.

As for `Cc1cccc(-c2ccn(-c3cc(N4CCOCC4)n4nc(C(=O)NC(C)C)cc4n3)n2)c1` [Example 38, N-isopropyl-7-morpholino-5-(3-(m-tolyl)-1H-pyrazol-1-yl)pyrazolo[1,5-a]pyrimidine-2-carboxamide], the pIC50 is 7.59.

With `Nc1cccc(-c2cc3nc(-n4ccc(-c5ccccc5)n4)cc(N4CCOCC4)n3n2)n1` [Compound 109, 6-[7-morpholino-5-(3-phenylpyrazol-1-yl)pyrazolo[1,5-a]pyrimidin-2-yl]pyridin-2-amine], the pIC50 was 6.56.

For the molecule `Cc1cccc(-c2ccn(-c3cc(N4CCOCC4)n4nc(-c5cc(C)n(CCN(C)C)n5)cc4n3)n2)c1` [Compound 91, N,N-dimethyl-2-[5-methyl-3-[7-morpholino-5-[3-(m-tolyl)pyrazol-1-yl]pyrazolo[1,5-a]pyrimidin-2-yl]pyrazol-1-yl]ethanamine], the pIC50 is 8.03.

Consider `Cc1cccc(-c2ccn(-c3cc(N4CCOCC4)n4nc(-c5cccnc5)cc4n3)n2)n1` [Compound 108, 4-[5-[3-(6-methyl-2-pyridyl)pyrazol-1-yl]-2-(3-pyridyl)pyrazolo[1,5-a]pyrimidin-7-yl]morpholine], for which the pIC50 was 5.87.

Take `Cc1cccc(-c2ccn(-c3cc(N4CCOCC4)n4nc(C(=O)NCC5CC5)cc4n3)n2)c1` [Example 27, N-(cyclopropylmethyl)-7-morpholino-5-(3-(m-tolyl)-1H-pyrazol-1-yl)pyrazolo[1,5-a]pyrimidine-2-carboxamide]: the pIC50 was 7.13.

For `Cc1cc(-c2cc3nc(-n4ccc(-c5ccccc5)n4)cc(N4CCOCC4)n3n2)n(C)n1` [Compound 85, 4-[2-(2,5-dimethylpyrazol-3-yl)-5-(3-phenylpyrazol-1-yl)pyrazolo[1,5-a]pyrimidin-7-yl]morpholine], the pIC50 is 6.67.

Consider `Cc1ccnc(-c2ccn(-c3cc(N4CCOCC4)n4nc(-c5cc(C)n(CCN(C)C)n5)cc4n3)n2)c1` [Compound 95, N,N-dimethyl-2-[5-methyl-3-[5-[3-(4-methyl-2-pyridyl)pyrazol-1-yl]-7-morpholino-pyrazolo[1,5-a]pyrimidin-2-yl]pyrazol-1-yl]ethanamine], for which the negative-log IC50 (pIC50) was 6.46.

As for `CCN(C)C(=O)c1cc2nc(-n3ccc(-c4cccc(C)c4)n3)cc(N3CCOCC3)n2n1` [Example 25, N-ethyl-N-methyl-7-morpholino-5-(3-(m-tolyl)-1H-pyrazol-1-yl)pyrazolo[1,5-a]pyrimidine-2-carboxamide], the pIC50 was 6.36.

With `c1ccc(-c2ccn(-c3cc(N4CCOCC4)n4nc(-c5cc[nH]n5)cc4n3)n2)cc1` [Compound 67, 4-[5-(3-phenylpyrazol-1-yl)-2-(1H-pyrazol-3-yl)pyrazolo[1,5-a]pyrimidin-7-yl]morpholine], the pIC50 was 6.58.

As for `Cc1cc(-c2cc3nc(-n4ccc(-c5ccccc5)n4)cc(N4CCOCC4)n3n2)nn1CCN(C)C` [Compound 99, N,N-dimethyl-2-[5-methyl-3-[7-morpholino-5-(3-phenylpyrazol-1-yl)pyrazolo[1,5-a]pyrimidin-2-yl]pyrazol-1-yl]ethanamine], the negative logarithm of the IC50 (pIC50) is 6.90.

Turning to `c1cc(-c2cnn(-c3cc(N4CCOCC4)n4nc(-c5ccncc5)cc4n3)c2)ccn1` [Example 11, 4-[2-(4-pyridyl)-5-[4-(4-pyridyl)pyrazol-1-yl]pyrazolo[1,5-a]pyrimidin-7-yl]morpholine], the pIC50 is 5.59.

`Cc1cccc(-c2ccn(-c3cc(N4CCOCC4)n4nc(C(=O)N(C)C5CCCC5)cc4n3)n2)c1` [Example 37, N-cyclopentyl-N-methyl-7-morpholino-5-(3-(m-tolyl)-1H-pyrazol-1-yl)pyrazolo[1,5-a]pyrimidine-2-carboxamide]: the pIC50 was 6.67.

`C[C@H](NC(=O)c1cc2nc(-n3ccc(-c4ccccc4)n3)cc(N3CCOCC3)n2n1)C1CC1` [Compound 75, N-[(1S)-1-cyclopropylethyl]-7-morpholino-5-(3-phenylpyrazol-1-yl)pyrazolo[1,5-a]pyrimidine-2-carboxamide]: the negative-log IC50 (pIC50) is 6.48.

In the case of `Cc1cccc(-c2ccn(-c3cc(N4CCOCC4)n4nc(C(=O)N5CCCC5)cc4n3)n2)c1` [Example 29, (7-morpholino-5-(3-(m-tolyl)-1H-pyrazol-1-yl)pyrazolo[1,5-a]pyrimidin-2-yl) (pyrrolidin-1-yl)methanone], the pIC50 was 7.02.

For the molecule `CC(C)NC(=O)c1cc2nc(-n3ccc(-c4ccccc4)n3)cc(N3CCOCC3)n2n1` [Compound 73, N-isopropyl-7-morpholino-5-(3-phenylpyrazol-1-yl)pyrazolo[1,5-a]pyrimidine-2-carboxamide], the pIC50 is 6.47.

As to `Cc1cccc(-c2ccn(-c3cc(N4CCOCC4)n4nc(C(=O)N(C)C)cc4n3)n2)c1` [Example 24, N,N-dimethyl-7-morpholino-5-(3-(m-tolyl)-1H-pyrazol-1-yl)pyrazolo[1,5-a]pyrimidine-2-carboxamide], the pIC50 is 6.56.

The values above are taken from patent US12486274B2, “Substituted pyrazolo-pyrimidines and uses thereof” (Verge Analytics, Inc., priority 2020, dated 2025).
